# Assays:
# hPSC-EPCs = conditions: CHIR supplemented in hPSC-EPCs culture medium; cited from earlier work
# [1] = tested on: gene-edited PB-TRE-N1ICD hPSC-EPCs; assay: RT-qPCR of BBB-related genes in gene-edited PB-TRE-N1ICD hPSC-EPCs + CHIR ± doxycycline; type: cell-based, human
# Method: Gene-edited hPSC-derived EPCs (D5) with high post-MACS purity validated by flow cytometry were cultured on collagen IV-coated plates at approximately 4×10^4 cells/cm^2 in hECSR medium supplemented with various antibiotics, with media changes every other day. […] […] On D15, cells were collected for RT-qPCR quantification of differential gene expression between doxycycline and DPBS-treated gene-edited hPSC-EPCs.
# RNA extraction was performed using the Direct-zol RNA Miniprep Kit (Zymo Research). Cells were lysed with 300-600 μL TRIzol reagent (Invitrogen, Waltham, MA) depending on the estimated cell count per sample. Cell lysates were combined with an equal volume of 100% ethanol and transferred to Zymo-Spin IICR spin columns. Columns were incubated with Rnase-free DNase I (Qiagen) to eliminate residual gDNA. Columns were washed with RNA Wash Buffer and Direct-zol RNA Pre-Wash according to Zymo RNA Miniprep Kit protocols. RNA was eluted with RNase-free water and concentration was determined using a NanoDrop 2000 spectrophotometer (Thermo Scientific). 250-1000 ng of RNA was reverse transcribed for 1 h at 37° C. using the OmniScript RT Kit (Qiagen). 1 U/μL RNaseOUT (Life Technologies) was included in the reverse-transcription reactions. Reaction products were diluted to 10 ng/μL. 20 μL qPCR reactions were carried out with 10 ng cDNA and 500 nM each forward and reverse primers (Integrated DNA Technologies, Coralville, IA [Table 1]) using PowerUp SYBR Green Master Mix (Life Technologies) or 1×Taqman Gene Expression Assay probes (Thermo Scientific [Table 1]) using Taqman Fast Advanced Master Mix (Thermo Scientific). Reactions were run on an AriaMx Real-Time PCR System (Agilent Technologies, Santa Clara, CA) using the thermal cycling program corresponding to either IDT primers or Taqman probes. An annealing temperature of 60° C. was used for all reactions.
# [2] = tested on: gene-edited PB-TRE-N1ICD 10(+CR2) hPSC-EPCs; assay: Transendothelial electrical resistance (TEER); type: cell-based, human; conditions: Dox-treated edited hPSC-EPCs at end of culture (D15), doxycycline D11-D15
# [3] = tested on: gene-edited PB-TRE-N1ICD 10(+CR2) hPSC-EPCs; assay: Bulk RNA-sequencing of FACS-sorted gene-edited 10(+CR2) hPSC-EPC subpopulations; type: cell-based, human
# Method: Ten PBS or doxycycline-treated gene-edited PB-TRE-N1ICD hPSC-derived endothelial cell subpopulations obtained via FACS were centrifuged at 200×g for 5 min. Pellets were resuspended TRIzol reagent (Invitrogen) for extraction of total RNA. RNA concentrations were quantified using the Qubit 4 Fluorometer (Invitrogen) and Qubit RNA High Sensitivity Assay Kit (Invitrogen). Purified RNA samples (≥200 ng) were sent to Novogene Corporation (Sacramento, CA) for library preparation and mRNA sequencing, with approximately 40-60 million paired end reads obtained per sample. FASTQ files were uploaded to the Galaxy^43 web platform and processed to generate a raw counts matrix using the publicly available bioinformatics server at usegalaxy.org. We ran FastQC to ensure high Phred quality scores and low percentages (<5%) adapter content (Galaxy). Illumina Universal Adapter sequences were trimmed from raw sequencing reads using Cutadapt (Galaxy). Data were aligned to the hg38 genome model using RNA STAR and raw reads per gene were determined using featureCounts. Differential expression analysis was performed in R using DESeq2^44. Heatmaps containing TPM values were generated using the pheatmap package in R. Comparison of the transcriptomic profile of […] overexpressing EPCs±Dox subpopulations to transcriptomes of established cell and tissue types was performed with […]^45.
# [4] = tested on: gene-edited PB-TRE-N1ICD 10(+CR2) hPSC-EPCs; assay: FACS of CD144 (VE-cadherin) subpopulations in gene-edited 10(+CR2) hPSC-EPCs; type: cell-based, human; conditions: doxycycline-treated population, D15
# Method: Gene-edited PB-TRE-N1ICD hPSC-EPCs were cultured in a 6-well plate with or without doxycycline as described above (n=3* replicates for doxycycline supplemented condition, n=4 replicates for PBS supplemented condition). On D15, cells were isolated with Accutase (incubated 15 mins at 37° C., 1 mL/well), triturated, and quenched through a 40 μm cell strainer into 4× the volume of DMEM (Life Technologies) supplemented with 10% FBS (R&D Systems). An additional well of gene-edited EPCs cultured with PBS was reserved as an isotype control. Unedited hPSCs maintained in E8 medium and unedited hPSC-EPCs cultured for 6 days in hECSR supplemented with 4 μM CHIR were used as an additional negative and positive control, respectively, for FACS. Cell count was quantified using a hemocytometer and cells were centrifuged at 200×g for 5 min. Cells were resuspended in MACS buffer at a concentration of 100 μL/10^6 cells. Cells suspensions were supplemented with CD144-APC or APC-conjugated isotype control antibodies (Table 2) at a 1:50 dilution for at 4° C. for 20 min, protected from light. Cells were washed with 2 mL MACS buffer and centrifuged at 200×g for 5 min. Pellets were resuspended in 400 μL each of MACS buffer supplemented with 1 μg/mL DAPI (Invitrogen) and incubated at 4° C., protected from light.
# Cells were sorted using the BD FACSAria III Cell Sorter (BD Biosciences). Gates for high or low CD144-expressing cells were determined based on two negative controls (gene-edited PB-TRE-N1ICD hPSC-derived ECs stained with APC isotype control antibody or unedited hPSCs stained with CD144-APC antibody, both negative for CD144) and one positive control (unedited hPSC-EPCs cultured with CHIR, CD144 high). After establishing gates, live gene-edited PB-TRE-N1ICD hPSC-ECs treated with or without doxycycline were sorted into tubes containing 500 μL MACS buffer and stored at 4° C.
# [5] = tested on: heterogeneous gene-edited hPSC-EPCs; assay: CD31 flow cytometry in heterogeneous gene-edited hPSC-EPCs, hygromycin/doxycycline timing; type: cell-based, human; conditions: 6 days of hygromycin reselection followed by 4 days of doxycycline treatment
# Method: To determine CD31 expression in edited hPSC-EPCs treated with doxycycline vs. DPBS (FIG. 15A,B), hPSC-ECs were isolated at day 13, 15, or 17, dissociated with Accutase as previously stated, quenched in DMEM supplemented with 10% FBS through a cell strainer, centrifuged, and resuspended in MACS buffer (100 μL/10^6 cells) supplemented with CD31-APC or APC isotype control antibodies at a 1:50 dilution. Cells were incubated at 4° C. for 20 min, protected from light. Cells were washed with 2 mL MACS buffer and centrifuged at 200×g for 5 min. Pellets were resuspended in 500 μL each of 4% PFA in DPBS and incubated 15 min at room temperature, protected from light. Cells were centrifuged at 200×g for 5 min and pellets were resuspended in 400 μL MACS buffer. Samples were run on an Attune NxT V6 flow cytometer with excitation at 633 nm. APC emission was detected with a 670/14 filter. Data were analyzed with Flow Jo software.
# [6] = tested on: gene-edited PB-TRE-N1ICD hPSC-EPCs; assay: Fluorescent albumin accumulation assay in gene-edited PB-TRE-N1ICD hPSC-EPCs; type: cell-based, human; conditions: PBS-treated 10(+CR2) cells, 30 min pretreatment: 3 mM MβCD, 20 µM CPZ or 2 μM rottlerin
# Method: Fixable, Alexa Fluor 647-conjugated bovine serum albumin (BSA) (Invitrogen) was used as a substrate to estimate total fluid-phase endocytosis. […] Similarly, D6 cultures of HUVECs treated with GFP or N1ICD LV were pre-treated with or without 3 mM MβCD for 30 min at 37° C. Cells were washed once with sterile DPBS and then incubated in hECSR (for hPSC-EPCs) supplemented with 5 μg/mL BSA or 1:1000 diluted DPBS, 1:100 diluted CD144-FITC or FITC isotype control antibody, and 4 μM Hoechst 33342 (Life Technologies) or EGM-2 media (for HUVECs) supplemented with 5 μg/mL BSA or 1:1000 diluted DPBS and 4 μM Hoechst 33342 at 4° C. or 37° C. for 2 h on a rotating platform at 30 rpm, protected from light. Cells were then washed 3 times with 4° C. sterile DPBS to stop the assay and wash away any extracellular BSA. Internalization of fluorescent BSA was visualized using an Eclipse Ti2-E epifluorescence microscope (Nikon, Tokyo, Japan) with a 20× objective.
# Flow cytometry was used to quantify accumulated BSA fluorescence within cells. […] FITC emission was detected with a 530/30 filter and AlexaFluor 647 emission was detected with a 670/14 filter. Data were analyzed with Flow Jo software.
# [7] = clone 10(+CR2), 6d H+4d D, 1 μg/mL doxycycline vs PBS, D15
# [8] = clone 10(+CR2), 6d P+4d D vs PBS control
smiles,measurement,setting,value
"Cc1c[nH]c(-c2cnc(NCCNc3ccc(C#N)cn3)nc2-c2ccc(Cl)cc2Cl)n1 [CHIR, CHIR99021]",increase in normalized SLC2A1 expression (TPM),hPSC-EPCs,~750 fold
"C[C@H]1c2cccc(O)c2C(=O)C2=C(O)[C@]3(O)C(=O)C(C(N)=O)=C(O)[C@@H](N(C)C)[C@@H]3[C@@H](O)[C@@H]21 [doxycycline, doxycycline hyclate]",decrease in CDH5 expression,"[1]; clone 3(+Y) hPSC-EPCs, highest doxycycline dose, D11-D15",~2 fold
same,downregulation of TJP1,"[1]; clone 10(+CR2), 2d P+4d D+4P vs PBS control",~2 fold
same,upregulation in MFSD2A,"[1]; clone 10(+CR2), 6d H+4d D and 6d P+4d D vs PBS control (6d H+4d P), D15",60- to 100 fold
same,decrease in expression of CDH5,[1]; [7],~3 fold
same,increase in MFSD2A expression,[1]; [7],~50 fold
same,increase in SLC2A1 expression,[1]; [7],> 20 fold
same,increase in expression of ABCB1,[1]; [7],~2 fold
same,increase in expression of ABCC1,[1]; [7],~2 fold
same,increase in expression of ABCG2,[1]; [7],~2 fold
same,upregulation in N1ICD expression,[1]; [7],~8 fold
same,increase in CDH2,"[1]; clone 10(+CR2), 6d P+4d D and 2d P+4d D+4P vs PBS control",~2 fold
same,increase in ABCC1,[1]; [8],7 fold
same,increase in ABCG2,[1]; [8],4 fold
same,increase in FN1,[1]; [8],~12 fold
same,upregulation of CLDN5,[1]; [8],~2 fold
same,reduction in CDH5,"[1]; clone 10(+CR2), 6d P+4d D vs PBS control, significant",~2 fold
same,reduction in CDH5,"[1]; clone 10(+CR2), other doxycycline-treated conditions vs PBS control, non-significant",~1.7 fold
same,average TEER,[2],less than 10 Ω·cm^2
same,increase in NOTCH1 expression (TPM),[3]; Dox CD144 hi vs PBS CD144 hi,~2 fold
same,increase in NOTCH1 expression (TPM),[3]; Dox CD144 lo vs PBS CD144 hi,~7 fold
same,cells with high CD144 expression,[4],~25%
same,cells with low but not absent CD144 expression,[4],~65%
same,CD144+ cells,[4]; live cells,~90%
same,percentage of CD31+ cells,[5],~90%
CC(=O)c1c(O)c(C)c(O)c(Cc2c(O)c3c(c(C(=O)/C=C/c4ccccc4)c2O)OC(C)(C)C=C3)c1O [rottlerin],fluorescent albumin accumulation after endocytosis inhibitor pretreatment,[6],but not with rottlerin
